{"source": "patent US4350754A", "about": "“Blocked development restrainers” (Polaroid Corporation, priority 1981, dated 1982)"}
{"assay": "Release kinetics in solution: t1/2, time for one half of the molecule to cleave and release the azole moiety", "type": "physicochemical", "conditions": "1×10^-4 molar in 30% acetonitrile/0.25 N aqueous KOH, 22°±0.1° C.; release of azole moiety", "from_the_text": "(§1) The release kinetics in solution of the compounds of the invention vary over a wide range.\n(§2) *rate of hydrolysis approximates rate of release\n(§3) **measured in 50% ethanol/water solution\n(§4) ***solution was 0.022N in KOH", "units": {"t1/2": "s"}}
{"compound": "CC(=NO)c1ccc(-n2nnnc2SCc2c[nH]c(=O)n(C)c2=O)cc1", "note": "[Compound XXVI]", "t1/2": 0.87}
{"compound": "CC(=O)n1c(=O)[nH]cc(Cn2nnn(-c3ccccc3)c2=S)c1=O", "note": "[Compound XXXI]", "t1/2": 911}
{"compound": "Cn1c(=O)[nH]cc(CSc2nnnn2-c2ccc(O)cc2)c1=O", "note": "[Compound XI]", "t1/2": 4.0}
{"compound": "Cn1c(=O)[nH]cc(CSc2nnnn2-c2ccccc2)c1=O", "note": "[II]", "t1/2": 0.81}
{"compound": "O=c1[nH]cc(CSc2ncnc3[nH]cnc23)c(=O)[nH]1", "note": "[Compound XVII]", "t1/2": 77.8}
{"compound": "O=c1[nH]cc(CSc2ncccn2)c(=O)[nH]1", "note": "[Compound XVIII]", "t1/2": 35.9}
{"compound": "Cn1c(=O)[nH]cc(Cn2nnn(-c3ccccc3)c2=S)c1=O", "note": "[VIII]", "t1/2": 1512}
{"compound": "O=C(c1ccccc1)n1c(=O)[nH]cc(CSc2nnnn2-c2ccccc2)c1=O", "note": "[XII]", "t1/2": 31.2}
{"compound": "O=c1[nH]cc(Cn2nc(-c3cccs3)oc2=S)c(=O)[nH]1", "note": "[XIV]", "t1/2": 4320}
{"compound": "O=c1[nH]cc(Cn2nnn(-c3ccccc3)c2=S)c(=O)[nH]1", "note": "[VII]", "t1/2": 900}
{"compound": "O=c1[nH]cc(Cn2nc(-c3ccccc3)oc2=S)c(=O)[nH]1", "note": "[Compound X]", "t1/2": 1080}
{"assay": "Release kinetics in solution: t1/2, time for one half of the molecule to cleave and release the azole moiety", "type": "physicochemical", "conditions": "30% acetonitrile/0.25 N aqueous KOH, 22° C.; rate of hydrolysis approximates rate of release", "from_the_text": "as §1, §2, §3, §4", "units": {"t1/2": "s"}}
{"compound": "CC(=O)Oc1ccc(-n2nnnc2SCc2c[nH]c(=O)n(C)c2=O)cc1", "note": "[V]", "t1/2": "1.8 to 4.0"}
{"assay": "Release kinetics in solution: t1/2, time for one half of the molecule to cleave and release the azole moiety", "type": "physicochemical", "conditions": "hydrolysis; 30% acetonitrile/0.25 N aqueous KOH, 22° C.", "from_the_text": "as §1, §2, §3, §4", "units": {"t1/2 (hydrolysis)": "s"}}
{"compound": "CC(=O)Oc1ccc(-n2nnnc2SCc2c[nH]c(=O)[nH]c2=O)cc1", "note": "[Compound XX]", "t1/2 (hydrolysis)": 2.5}
{"assay": "Release kinetics in solution: t1/2, time for one half of the molecule to cleave and release the azole moiety", "type": "physicochemical", "conditions": "measured in 50% ethanol/water solution; 22° C.", "from_the_text": "as §1, §2, §3, §4", "units": {"t1/2": "s"}}
{"compound": "Cc1ccc(Nc2nnc([Se]Cc3c[nH]c(=O)[nH]c3=O)[se]2)cc1", "note": "[Compound XIX]", "t1/2": 48.8}
